Experimental data taken from patent US6248754A, “Substituted isoquinoline derivatives and their use as anticonvulsants” (SmithKline Beecham, p.l.c., priority 1997, dated 2001).

Legend:
[1] = molecular target: novel receptor obtainable from rat forebrain tissue; test: Radioligand binding assay, displacement of [3H]-Compound A; conditions: competition with 20 nM [3H]-Compound A, room temperature 1 hour
Experimental: The affinity of test compounds to the novel receptor site is assessed as follows. Whole forebrain tissue is obtained from rats. The tissue is first homogenised in buffer (usually 50 mM Tris/HCl, pH 7.4). The homogenised tissue is washed by centrifugation and resuspension in the same buffer, then stored at -70° C. until used. To carry out the radioligand binding assay, aliquots of tissue prepared as above (usually at a concentration of 1-2 mg protein/ml) are mixed with aliquots of [3H]-Compound A dissolved in buffer. The final concentration of [3H]-Compound A in the mixture is usually 20 nM. The mixture is incubated at room temperature for 1 hour. [3H]-Compound A bound to the tissue is then separated from unbound [3H]-Compound A by filtration through Whatman GF/B glass fibre filters. The filters are then washed rapidly with ice-cold buffer. The amount of radioactivity bound to the tissue trapped on the filters is measured by addition of liquid scintillation cocktail to the filters followed by counting in a liquid scintillation counter. In order to determine the amount of "specific" binding of [3H]-Compound A, parallel assays are carried out as above in which [3H]-Compound A and tissue are incubated together in the presence of unlabelled Compound A (usually 3 μM). The amount of binding of [3H]-Compound A remaining in the presence of this unlabelled compound is defined as "non-specific" binding. This amount is subtracted from the total amount of [3H]-Compound A binding (i.e. that present in the absence of unlabelled compound) to obtain the amount of "specific" binding of [3H]-Compound A to the novel site. The affinity of the binding of test compounds to the novel site can be estimated by incubating together [3H]-Compound A and tissue in the presence of a range of concentrations of the compound to be tested. The decrease in the level of specific [3H]-Compound A binding as a result of competition by increasing concentrations of the compound under test is plotted graphically, and non-linear regression analysis of the resultant curve is used to provide an estimate of compound affinity in terms of pKi value.

[2] = system: maximal (tonic hindlimb extension) electroshock seizures in male rats; test: Maximal electroshock seizure (MEST) threshold test, rat model; format: in vivo; conditions: 2 mg/kg p.o. at 2 h, suspended in 1% methyl cellulose, statistically significant
Experimental: The maximal electroshock seizure (MEST) threshold test in rodents is particularly sensitive for detecting potential anticonvulsant properties^1. In this model, anticonvulsant agents elevate the threshold to electrically-induced seizures whilst proconvulsants lower the seizure threshold.
The threshold for maximal (tonic hindlimb extension) electroshock seizures in male rats (Sprague Dawley, 80-150 g, 6 weeks old) was determined by a Hugo Sachs Electronik stimulator which delivered a constant current (0.3 sec duration; from 1-300 mA in steps of 5-20 mA). The procedure is similar to that outlined above for mouse and full details are as published by Upton et al,.^4
The percentage increase or decrease in CC50 for each group compared to the control is calculated.
Drugs are suspended in 1% methyl cellulose.

SMILES | pKi [1] | increase in CC50 compared to control [2] [%]
CCOc1ccc(C(=O)Nc2ccc3c(c2Cl)CNCC3)cc1Br [Example 2, N-(8-Chloro-1,2,3,4-tetrahydroisoquinolin-7-yl)-3-bromo-4-ethoxybenzamide] | greater than 7 | 120
CCOc1ccc(C(=O)Nc2ccc3c(c2Cl)CN(C)CC3)cc1Br [Example 3, N-(8-chloro-2-methyl-1,2,3,4-tetrahydroisoquinolin-7-yl)-3-bromo-4-ethoxybenzamide] | greater than 7 | 160
COc1ccc(C(=O)Nc2ccc3c(c2Cl)CNCC3)cc1C(F)(F)F [Example 5] | greater than 7 | 320
COc1ccc(C(=O)Nc2ccc3c(c2Cl)CN(C)CC3)cc1C(F)(F)F [Example 6, N-(8-Chloro-2-methyl-1,2,3,4-tetrahydroisoquinolin-7-yl)-4-methoxy-3-trifluoromethylbenzamide] |  | 260
COc1ccc(C(=O)Nc2ccc3c(c2Br)CNCC3)cc1C(F)(F)F [Example 8, N-(8-Bromo-1,2,3,4-tetrahydroisoquinolin-7-yl)-4-methoxy-3-trifluoromethylbenzamide] |  | 400
COc1ccc(C(=O)Nc2ccc3c(c2Br)CN(C)CC3)cc1C(F)(F)F [Example 9, N-(8-Bromo-2-methyl-1,2,3,4-tetrahydroisoquinolin-7-yl)-4-methoxy-3-trifluoromethylbenzamide] |  | 340
CCc1c(NC(=O)c2ccc(OC)c(C(F)(F)F)c2)ccc2c1CNCC2 [Example 14, N-(8-Ethyl-1,2,3,4-tetrahydroisoquinolin-7-yl)-4-methoxy-3-trifluoromethylbenzamide] | greater than 7 | 
CCc1c(NC(=O)c2ccc(OC)c(C(F)(F)F)c2)ccc2c1CN(C)CC2 [Example 15, N-(8-Ethyl-2-methyl-1,2,3,4-tetrahydroisoquinolin-7-yl)-4-methoxy-3-trifluoromethylbenzamide] | greater than 7 | 
COc1ccc(C(=O)Nc2ccc3c(c2C=Cc2ccccc2)CNCC3)cc1C(F)(F)F [Example 18, N-(8-Styryl-1,2,3,4-tetrahydroisoquinolin-7-yl)-4-methoxy-3-trifluoromethylbenzamide] | greater than 7 | 
COc1ccc(C(=O)Nc2ccc3c(c2C=Cc2ccccc2)CN(C)CC3)cc1C(F)(F)F.Cl [Example 19, N-(8-Styryl-2-methyl-1,2,3,4-tetrahydroisoquinolin-7-yl)-4-methoxy-3-trifluoromethylbenzamide hydrochloride] | greater than 7 | 
